Experiment [1] can be described thus: Cytotoxicity against human Caco2 cells after 72 hrs by WST-8 assay. In kind it is functional, cell-based. Particulars: Caco-2, 72 h.
A further experiment has as its system A549. Kind of experiment: Cytotoxicity against human A549 cells after 72 hrs by WST-8 assay. In kind it is functional, cell-based. The conditions noted are these: A549, 72 h. Background: Tetrazolium dyes change colour on reduction, which living cells bring about.
A further experiment concerns HeLa. Kind of experiment: Cytotoxicity against human HeLa cells assessed as growth inhibition at 1 ug/ml after 72 hrs by WST-8 assay. The experiment is classed as functional. Particulars: read-out: GI.
The test system of the next experiment is P388. Kind of experiment: Antitumor activity against mouse P388 cells xenografted in CDF1 mouse at 0.5 mg/kg administered on day 1 and day 5 relative to control. The experiment is classed as functional.
The species entered for the next experiment is Homo sapiens. Kind of experiment: Binding affinity to actin (unknown origin) by surface plasmon resonance analysis. On the technique in general: Surface plasmon resonance follows binding to a sensor surface in real time, without labels.

In brackets after ≈: the same amount, converted by molar mass. Activity calls are given as the source filed them. No cut-off for these calls is given here.

For orientation: IC50 means the concentration needed to halve the response being measured. The low end stands for greater potency, the high end for weaker potency. In general, T/C refers to the ratio of treated to control. As for `C=CC[C@H](C)[C@@H](O)C[C@@H]1C[C@H]2O[C@H](/C=C(C)/C=C/C[C@H]3C[C@@H]4O[C@@H](/C=C/CCCCC)C[C@@H]4O3)C[C@H]2O1`, the values for the concentration for half-maximal inhibition (IC50) (in experiment [1]; with A549) were 0.1 µg/mL (≈ 0.194 µM) and 0.6 µg/mL (≈ 1.17 µM), respectively. Moreover, in the experiment with HeLa, the inhibition of growth at 1 µg/mL amounted to 20%. The same molecule came in with a T/C in the experiment on P388 of 120%. Besides, the outcome in the experiment listed under Homo sapiens was Active.

The record behind these values is ChEMBL document CHEMBL3393044, “Amphirionin-2, a novel linear polyketide with potent cytotoxic activity from a marine dinoflagellate Amphidinium species” (Bioorg Med Chem Lett, 2015).
